Here are results for 25 compounds from patent publication US20240368135A1 (VERTEX PHARMACEUTICALS INCORPORATED, priority 2021, published 2024).

Sequence of human NaV 1.8 (Q9Y5Y9 126-399 limits assumed): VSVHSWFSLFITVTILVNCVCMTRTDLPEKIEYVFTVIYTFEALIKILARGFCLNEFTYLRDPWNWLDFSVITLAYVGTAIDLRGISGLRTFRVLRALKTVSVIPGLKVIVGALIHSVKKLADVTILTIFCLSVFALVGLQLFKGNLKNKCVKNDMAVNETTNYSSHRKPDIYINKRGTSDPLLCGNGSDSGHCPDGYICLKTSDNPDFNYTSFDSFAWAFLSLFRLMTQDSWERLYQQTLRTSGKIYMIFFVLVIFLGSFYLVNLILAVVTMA
Sequence of human NaV 1.8 (Q9Y5Y9 660-890 limits assumed): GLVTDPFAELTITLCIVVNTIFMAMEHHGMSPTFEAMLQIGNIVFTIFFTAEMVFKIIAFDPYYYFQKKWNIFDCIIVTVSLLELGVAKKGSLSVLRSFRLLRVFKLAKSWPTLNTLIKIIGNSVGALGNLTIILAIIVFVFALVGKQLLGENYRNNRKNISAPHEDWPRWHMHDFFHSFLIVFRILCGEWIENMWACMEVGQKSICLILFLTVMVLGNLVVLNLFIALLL
Sequence of human NaV 1.8 (Q9Y5Y9 1148-1722 limits assumed): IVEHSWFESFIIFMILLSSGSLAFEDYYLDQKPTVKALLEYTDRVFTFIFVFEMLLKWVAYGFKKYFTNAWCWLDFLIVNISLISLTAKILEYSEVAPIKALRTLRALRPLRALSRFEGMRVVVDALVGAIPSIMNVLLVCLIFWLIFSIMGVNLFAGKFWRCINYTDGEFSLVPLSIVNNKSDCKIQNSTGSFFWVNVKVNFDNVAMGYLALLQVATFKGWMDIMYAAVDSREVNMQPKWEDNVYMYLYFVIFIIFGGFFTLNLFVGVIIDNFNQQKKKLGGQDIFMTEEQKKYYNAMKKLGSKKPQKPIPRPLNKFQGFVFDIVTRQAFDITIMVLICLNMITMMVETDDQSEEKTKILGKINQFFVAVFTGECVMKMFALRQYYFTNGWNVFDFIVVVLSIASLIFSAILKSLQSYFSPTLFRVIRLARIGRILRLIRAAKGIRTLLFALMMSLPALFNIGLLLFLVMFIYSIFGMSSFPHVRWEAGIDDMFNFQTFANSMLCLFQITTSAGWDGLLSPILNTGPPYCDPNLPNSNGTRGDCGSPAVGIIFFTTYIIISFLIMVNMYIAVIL

The first assay concerns the target human NaV 1.8 (Homo sapiens, UniProt Q9Y5Y9). Briefly: E-VIPR assay detecting and measuring NaV inhibition properties. Format: cell-based. The settings on record: HEK cells expressing truncated human NaV 1.8; in the presence of human serum (compound numbers followed by *); read-out: IC50 in the E-VIPR Assay, performed in the presence of human serum. An outline of the steps:
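HEK cells expressing truncated, fully active human NaV1.8, with KIR2.1 BacMam co-transduction, were loaded with CC2-DMPE/DiSBAC6(3) voltage-sensing dyes for 20 min at room temperature. Compounds were tested in 11-point 3-fold dilutions (300 nM top final), optionally with 25% human serum, under electrical stimulation with FRET read-out.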
The IC50 is the concentration that inhibits the measured activity by half. As to `C[C@@H]1[C@H](c2ccc(F)c(F)c2OC(F)F)[C@@H](C(=O)Nc2ccnc(CCO)c2)O[C@]1(C)C(F)(F)F` (single isomer, unassigned) [Compound 457], the 50% inhibitory concentration (IC50) is at least 1000 nM.

Regarding `COc1c(C2C(C(=O)Nc3ccnc(C(O)C(C)O)c3)OC(C)(C(F)(F)F)C2C)ccc(F)c1C` (single isomer, unassigned) [Compound 143], the concentration for half-maximal inhibition (IC50) was at least 1000 nM.

Take `COc1c([C@@H]2[C@@H](C(=O)Nc3cc(C(O)CO)ncc3F)O[C@](C)(C(F)(F)F)[C@@H]2C)ccc(F)c1C` (single isomer, unassigned) [Compound 139]: the IC50 is at least 1000 nM. For the compound `COc1c([C@@H]2C[C@](C)(C(F)(F)F)O[C@H]2C(=O)Nc2cc(C(O)CO)ncc2F)ccc(F)c1F` (single isomer, unassigned) [Compound 689], the half-maximal inhibitory concentration (IC50) fell in the range of 100 to 1000 nM. Turning to `COc1c([C@H]2[C@H](C(=O)Nc3cc(C(O)CO)ncc3F)O[C@@](C)(C(F)(F)F)[C@H]2C)ccc(F)c1C` (single isomer, unassigned) [Compound 140], the IC50 was 10 to 100 nM.

Still in this assay, the particulars now being: HEK cells expressing truncated human NaV 1.8; no human serum; read-out: IC50 in the E-VIPR Assay.
For the compound `COc1c([C@H]2[C@H](C(=O)N[C@H]3C[C@@H]3c3cnn(C)c3)O[C@@](C)(C(F)(F)F)[C@H]2C)ccc(F)c1F` (relative stereo) [Compound 267, rel-(2R*,3S*,4S*,5R*)-3-(3,4-difluoro-2-methoxyphenyl)-4,5-dimethyl-N-((1S,2R)-2-(1-methyl-1H-pyrazol-4-yl)cyclopropyl)-5-(trifluoromethyl)tetrahydrofuran-2-carboxamide], the IC50 was below 10 nM. For the compound `COc1c([C@H]2[C@H](C(=O)Nc3ccc(-n4ccnc4)nc3)O[C@@](C)(C(F)(F)F)[C@H]2C)ccc(F)c1F` [Compound 401, (2R,3S,4S,5R)-N-(6-(1H-imidazol-1-yl)pyridin-3-yl)-3-(3,4-difluoro-2-methoxyphenyl)-4,5-dimethyl-5-(trifluoromethyl)-tetrahydrofuran-2-carboxamide], the half-maximal inhibitory concentration (IC50) was 10 to 100 nM. With `COc1c([C@H]2[C@H](C(=O)Nc3ccnc(N4CC[C@@H](O)C4=O)c3)O[C@@](C)(C(F)(F)F)[C@H]2C)ccc(F)c1F` [Compound 471, (2R,3S,4S,5R)-3-(3,4-difluoro-2-methoxyphenyl)-N-(2-((R)-3-hydroxy-2-oxopyrrolidin-1-yl)pyridin-4-yl)-4,5-dimethyl-5-(trifluoromethyl)tetrahydrofuran-2-carboxamide], the IC50 was 10 to 100 nM.

On to `COc1c([C@H]2[C@H](C(=O)Nc3cc(C4(N(C)C)COC4)ncc3F)O[C@@](C)(C(F)(F)F)[C@H]2C)ccc(F)c1F` [Compound 363, (2R,3S,4S,5R)-3-(3,4-difluoro-2-methoxyphenyl)-N-(2-(3-(dimethylamino)oxetan-3-yl)-5-fluoropyridin-4-yl)-4,5-dimethyl-5-(trifluoromethyl)tetrahydrofuran-2-carboxamide], for which the 50% inhibitory concentration (IC50) lay in the range of 10 to 100 nM. As to `Cc1nocc1NC(=O)[C@@H]1O[C@@](C)(C(F)(F)F)[C@@H](C)[C@H]1c1ccc(F)c(F)c1OCCN1CCOCC1` [Compound 586, (2R,3S,4S,5R)-3-(3,4-difluoro-2-(2-morpholinoethoxy)phenyl)-4,5-dimethyl-N-(3-methylisoxazol-4-yl)-5-(trifluoromethyl)tetrahydrofuran-2-carboxamide], the IC50 is 10 to 100 nM. The same measure, in the same setting: in the case of `COc1c(C2C(C(=O)Nc3ccncn3)OC(C)(C(F)(F)F)C2C)ccc(F)c1F` (single isomer, unassigned) [Compound 35, 3-(3,4-difluoro-2-methoxy-phenyl)-4,5-dimethyl-N-pyrimidin-4-yl-5-(trifluoromethyl)tetrahydrofuran-2-carboxamide] it was at least 1000 nM. In the case of `COc1c([C@H]2[C@H](C(=O)Nc3ccnc(C(CO)OC)c3)O[C@@](C)(C(F)(F)F)[C@H]2C)ccc(F)c1F` (single isomer, unassigned) [Compound 248, rel-(2R*,3S*,4S*,5R*)-3-(3,4-difluoro-2-methoxyphenyl)-N-(2-(2-hydroxy-1-methoxyethyl)pyridin-4-yl)-4,5-dimethyl-5-(trifluoromethyl)tetrahydrofuran-2-carboxamide], the concentration for half-maximal inhibition (IC50) is below 10 nM.

For the compound `COc1c([C@H]2[C@H](C(=O)Nc3ccnc(N4C(=O)[C@H]5C[C@@H]4CN5C)c3)O[C@@](C)(C(F)(F)F)[C@H]2C)ccc(F)c1F` [Compound 490, (2R,3S,4S,5R)-3-(3,4-difluoro-2-methoxyphenyl)-4,5-dimethyl-N-(2-((1R,4R)-5-methyl-3-oxo-2,5-diazabicyclo[2.2.1]heptan-2-yl)pyridin-4-yl)-5-(trifluoromethyl)tetrahydrofuran-2-carboxamide], the 50% inhibitory concentration (IC50) is 10 to 100 nM. On to `COc1c([C@H]2[C@H](C(=O)Nc3ccnc(N4CCC(N)C4=O)c3)O[C@@](C)(C(F)(F)F)[C@H]2C)ccc(F)c1F` (single isomer, unassigned) [Compound 497, rel-(2R*,3S*,4S*,5R*)-N-(2-(3-amino-2-oxopyrrolidin-1-yl)pyridin-4-yl)-3-(3,4-difluoro-2-methoxyphenyl)-4,5-dimethyl-5-(trifluoromethyl)tetrahydrofuran-2-carboxamide], for which the IC50 was 10 to 100 nM. Consider `COc1cc(NC(=O)[C@@H]2O[C@@](C)(C(F)(F)F)[C@@H](C)[C@H]2c2ccc(F)c(F)c2OCCO)c(F)cn1` [Compound 570, (2R,3S,4S,5R)-3-(3,4-difluoro-2-(2-hydroxyethoxy)phenyl)-N-(5-fluoro-2-methoxypyridin-4-yl)-4,5-dimethyl-5-(trifluoromethyl)tetrahydrofuran-2-carboxamide], for which the concentration for half-maximal inhibition (IC50) fell in the range of 10 to 100 nM. In the case of `COCCOc1c([C@H]2[C@H](C(=O)Nc3cnn(CC(C)(C)O)c3)O[C@@](C)(C(F)(F)F)[C@H]2C)ccc(F)c1F` [Compound 583, (2R,3S,4S,5R)-3-(3,4-difluoro-2-(2-methoxyethoxy)phenyl)-N-(1-(2-hydroxy-2-methylpropyl)-1H-pyrazol-4-yl)-4,5-dimethyl-5-(trifluoromethyl)tetrahydrofuran-2-carboxamide], the IC50 lay in the range of 100 to 1000 nM. For the compound `C[C@@H]1[C@H](c2ccc(F)c(F)c2OC(F)F)[C@@H](C(=O)Nc2ccnc(CO)c2)O[C@]1(C)C(F)(F)F` (single isomer, unassigned) [Compound 91], the IC50 is at least 1000 nM. Consider `COc1c([C@H]2[C@H](C(=O)Nc3cncc(N4C(=O)CN(C)C[C@H]4C)c3)O[C@@](C)(C(F)(F)F)[C@H]2C)ccc(F)c1F` [Compound 535, (2R,3S,4S,5R)-3-(3,4-difluoro-2-methoxyphenyl)-N-(5-((R)-2,4-dimethyl-6-oxopiperazin-1-yl)pyridin-3-yl)-4,5-dimethyl-5-(trifluoromethyl)tetrahydrofuran-2-carboxamide], for which the IC50 was 10 to 100 nM. The same measure, in the same setting: in the case of `COc1c([C@H]2[C@H](C(=O)Nc3ccc(C(N)=O)nc3)O[C@@](C)(C(F)(F)F)[C@H]2C)ccc(F)c1C(F)F` (stereo in doubt) [Compound 168, rel-5-((2R,3S,4S,5R)-3-(3-(difluoromethyl)-4-fluoro-2-methoxyphenyl)-4,5-dimethyl-5-(trifluoromethyl)tetrahydrofuran-2-carboxamido)picolinamide] it was below 10 nM; in that of `COc1c([C@H]2[C@H](C(=O)Nc3cncc(S(=O)(=O)N4CCN(C)CC4)c3)O[C@@](C)(C(F)(F)F)[C@H]2C)ccc(F)c1F` [Compound 380, (2R,3S,4S,5R)-3-(3,4-difluoro-2-methoxyphenyl)-4,5-dimethyl-N-(5-((4-methylpiperazin-1-yl)sulfonyl)pyridin-3-yl)-5-(trifluoromethyl)tetrahydrofuran-2-carboxamide], 10 to 100 nM.

Take `COc1c([C@H]2[C@H](C(=O)Nc3ccnc(C4(N)CCOC4)c3)O[C@@](C)(C(F)(F)F)[C@H]2C)ccc(F)c1F` (single isomer, unassigned) [Compound 347, rel-(2R*,3S*,4S*,5R*)-N-(2-(3-aminotetrahydrofuran-3-yl)pyridin-4-yl)-3-(3,4-difluoro-2-methoxyphenyl)-4,5-dimethyl-5-(trifluoromethyl)-tetrahydrofuran-2-carboxamide]: the IC50 was 10 to 100 nM. For `C[C@H]1[C@@H](c2ccc(F)c(F)c2OCCN2CC3(COC3)C2)[C@H](C(=O)Nc2ccc3nncn3c2)O[C@@]1(C)C(F)(F)F` [Compound 620, (2R,3S,4S,5R)-3-(2-(2-(2-oxa-6-azaspiro[3.3]heptan-6-yl)ethoxy)-3,4-difluorophenyl)-N-([1,2,4]triazolo[4,3-a]pyridin-6-yl)-4,5-dimethyl-5-(trifluoromethyl)tetrahydrofuran-2-carboxamide], the IC50 is 10 to 100 nM. Regarding `Cc1nn(C(F)F)cc1NC(=O)[C@@H]1O[C@@](C)(C(F)(F)F)[C@@H](C)[C@H]1c1ccc(F)c(F)c1OCC(=O)O` [Compound 603, 2-(6-((2R,3S,4S,5R)-2-((1-(difluoromethyl)-3-methyl-1H-pyrazol-4-yl)carbamoyl)-4,5-dimethyl-5-(trifluoromethyl)tetrahydrofuran-3-yl)-2,3-difluorophenoxy)acetic acid], the IC50 was at least 1000 nM.

For the compound `COc1c([C@H]2[C@H](C(=O)Nc3ccc(C(N)=O)nc3)O[C@@](C)(C(F)(F)F)[C@H]2C)cccc1C(F)(F)F` (stereo in doubt) [Compound 156, rel-5-((2R,3S,4S,5R)-3-(2-methoxy-3-(trifluoromethyl)phenyl)-4,5-dimethyl-5-(trifluoromethyl)tetrahydrofuran-2-carboxamido)picolinamide], the half-inhibitory concentration (IC50) was below 10 nM. Take `CN=S(C)(=O)c1cc(NC(=O)C2OC(C)(C(F)(F)F)C(C)C2c2ccc(F)c(F)c2OC)ccn1` (single isomer, unassigned) [Compound 529, 3-(3,4-difluoro-2-methoxy-phenyl)-N-[2-(N,S-dimethylsulfonimidoyl)-4-pyridyl]-4,5-dimethyl-5-(trifluoromethyl)tetrahydrofuran-2-carboxamide]: the half-maximal inhibitory concentration (IC50) lay within 100 to 1000 nM.
